Test results as given in EP4559923A1, “ANTIHISTAMINE COMPOUND, AND PREPARATION METHOD THEREFOR AND USE THEREOF” (HC Synthetic Pharmaceutical Co., Ltd., priority 2022, dated 2024).
Converted amounts (≈) assume the structure as drawn.

Tests used:
histamine-induced asthma = assay: Antiasthmatic effect on histamine-induced asthma in guinea pigs (latency period); assay type: in vivo; conditions: X±s, n = 5; for Post-administration latency period: 1 mg/kg oral gavage, sixty minutes after administration, histamine hydrochloride spray, no asthma within 8 minutes counted as 8 minutes
Procedure: The guinea pigs were placed in a polymethyl methacrylate bell jar and a histamine hydrochloride solution was sprayed ultrasonically (0.8 mg/mL) for 40 seconds. The time point at which the guinea pigs developed asthma was recorded. The time of convulsion and fall was taken as the latency period. Guinea pigs with a latency period exceeding 180 seconds were not selected. […] The guinea pigs were administered by oral gavage at a dose of 2 mL/kg·bw. Sixty minutes after the administration, the guinea pigs were placed in bell jars, and histamine hydrochloride solution was sprayed under the same conditions as in the previous selection. The latency period for the onset of asthma was recorded. […] The results were processed statistically.

[1] = Muscle tone of isolated ileal smooth muscle of guinea pigs contracted with histamine; conditions: Table 4; 3 minutes after adding 0.05 mL compound at maximum histamine contraction; x±s, n = 8
Procedure: (§1) The guinea pig was knocked unconscious with a wooden stick, and the abdomen was immediately dissected to separate the ileum about 15 cm in length. The contents of the intestinal segment were flushed with Tyrode's solution and placed in Tyrode's solution at a constant temperature of 37°C for later use, and oxygen was supplied simultaneously. The experimental intestinal tract (1 cm in length) was cut and placed into 20 ml of Tyrode's solution at a constant temperature of 37°C with a continuous oxygen supply. One end of the intestine was fixed on the ventilation hook and the other end was connected to the muscle tone transducer and led to the computer interface. The muscle tone value of the ileal smooth muscle was recorded with a BL system. The experiment was carried out after the intestinal segment contraction became stable.
(§2) After the ileal peristalsis curve stabilized, the tone values before adding the compound were recorded, and then 0.05 mL of histamine was added. […] The operation was repeated 8 times. The antispasmodic percentage was calculated using the following equation. Antispasmodic percentage; = (Tone value after adding histamine−Tone value after adding subject compound)/(Tone value after adding histamine) × 100% [formula]

histamine = assay: as above; conditions: Table 4, x±s, n = 8; for Antispasmodic percentage (%): relative to tone after adding histamine, 3 min; for Smooth muscle tone (g) After addition of histamine: after 0.05 mL of histamine, before compound; for Smooth muscle tone (g) Before administration: before histamine and compound
Procedure: as §1, §2

[2] = Solubility in water, methanol and isopropanol; conditions: for solubility Water: in water; for solubility Isopropanol: in isopropanol; for solubility Methanol: in methanol
Procedure: The solubility in water, methanol, and isopropanol of the compounds of the present disclosure and the comparative compounds were measured separately.

[3] = Accelerated stability test; assay type: physicochemical; conditions: 40°C ± 2°C, relative humidity 75% ± 5%; for remaining at 730 h / remaining at 1460 h / remaining at 2190 h / remaining at 4380 h: storage 75% relative humidity, read-out: Content
[4] = system: isolated ileal smooth muscle; assay: Muscle tone of isolated ileal smooth muscle of guinea pigs, compound alone; conditions: Table 3, no histamine, X±s, n = 8; for Smooth muscle tone (g) After administration: 5 minutes after adding the drug; for Antispasmodic percentage (%): relative to tone before adding compound, 5 min
Procedure: as §1
After the ileum contraction curve stabilized, the tone values before adding the drug were recorded, then the drug or DMSO was added, and the average tone value of the ileum contraction curve at that point was recorded 5 minutes later. The operation was repeated 8 times. The antispasmodic percentage was calculated according to the following formula. Antispasmodic percentage =; (Tone value before adding subject compound−Tone value after adding subject compound)/(Tone value before adding subject compound) × 100% [formula]

Structure (SMILES)	Content ([3]; Month 0) [%]	Description ([3]; Month 0)	Related substances ([3]; Month 0) [%]	Description ([3]; Month 1)	Related substances ([3]; Month 1) [%]	Description ([3]; Month 2)	Related substances ([3]; Month 2) [%]	Description ([3]; Month 3)	Related substances ([3]; Month 3) [%]	Description ([3]; Month 6)	Related substances ([3]; Month 6) [%]	remaining at 730 h ([3]; Month 1) [%]	remaining at 1460 h ([3]; Month 2) [%]	solubility Water [2]	solubility Isopropanol [2] [mg/mL]	Post-administration latency period (histamine-induced asthma) [s]	Smooth muscle tone (g) After administration [1] [g]	Antispasmodic percentage (%) (histamine)	Smooth muscle tone (g) After administration [4] [g]	Antispasmodic percentage (%) [4] [%]	also measured
O=P(O)(O)OCCCCN1CCC(=C2c3ccc(Cl)cc3CCc3cccnc32)CC1 [Compound IV-4]	99.6	White powder	0.03	White powder	0.04	White powder	0.05	White powder	0.06	White powder	0.10	99.6	99.6			380.22 ± 51.19	1.16 ± 0.22	66.76±19.71	1.14 ± 0.21	33.33±20.91	solubility ([2]; water): 402 mg/mL (≈ 868 mM); remaining at 2190 h ([3]; Month 3): 99.6%; remaining at 4380 h ([3]; Month 6): 99.5%
OCCCCN1CCC(=C2c3ccc(Cl)cc3CCc3cccnc32)CC1 [Hydroxybutyl desloratadine, hydroxybutyl desloratadine, reference compound]														Practically insoluble		279.71 ± 54.91	1.44 ± 0.44		1.30 ± 0.23	23.53±12.32	Smooth muscle tone (g) After addition of histamine (histamine): 3.41 ± 0.92 g; Smooth muscle tone (g) Before administration (histamine): 1.73 ± 0.12 g

Continued, in another order:

Content ([3]; Month 0) [%]	Description ([3]; Month 0)	Related substances ([3]; Month 0) [%]	Description ([3]; Month 1)	Related substances ([3]; Month 1) [%]	Description ([3]; Month 2)	Related substances ([3]; Month 2) [%]	Description ([3]; Month 3)	Related substances ([3]; Month 3) [%]	Description ([3]; Month 6)	Related substances ([3]; Month 6) [%]	remaining at 730 h ([3]; Month 1) [%]	remaining at 1460 h ([3]; Month 2) [%]	solubility Water [2]	solubility Isopropanol [2] [mg/mL]	Structure (SMILES)	Post-administration latency period (histamine-induced asthma) [s]	Smooth muscle tone (g) After administration [1] [g]	Antispasmodic percentage (%) (histamine)	Smooth muscle tone (g) After administration [4] [g]	Antispasmodic percentage (%) [4] [%]	also measured
99.6	White powder	0.03	White powder	0.06	White powder	0.09	White powder	0.13	White powder	0.28	99.6	99.5	287 mg/mL (≈ 602 mM)	4 (≈ 8.39 mM)	O=P(O)(O)OCCCCCN1CCC(=C2c3ccc(Cl)cc3CCc3cccnc32)CC1 [Compound IV-7]	367.32 ± 53.01	1.15 ± 0.23	66.76±19.32	1.16 ± 0.27	31.76±18.66	solubility Methanol [2]: 27 mg/mL (≈ 56.6 mM); remaining at 2190 h ([3]; Month 3): 99.5%; remaining at 4380 h ([3]; Month 6): 99.3%
													32 mg/mL (≈ 67.1 mM)	25 (≈ 52.4 mM)	O=P(O)(O)OCCCCCN1CCC(=C2c3ccc(Cl)cc3CCc3cccnc32)CC1 [Compound III-13]	366.81 ± 53.10	1.17 ± 0.20	65.58±18.20	1.21 ± 0.26	32.02±16.85	Pre-administration latency period (histamine-induced asthma; baseline before dosing, histamine hydrochloride spray 0.8 mg/mL for 40 seconds): 104.38 ± 50.27 s; Smooth muscle tone (g) After addition of histamine (histamine): 3.40 ± 0.98 g; Smooth muscle tone (g) Before administration (histamine): 1.80 ± 0.16 g; Smooth muscle tone (g) Before administration ([4]; before adding the drug): 1.78 ± 0.25 g
99.5	White powder	0.03	White powder	0.06	White powder	0.10	White powder	0.13	White powder	0.28			386 mg/mL (≈ 834 mM)	1 (≈ 2.16 mM)	O=P(O)(O)OCCCCN1CCC(=C2c3ccc(Cl)cc3CCc3cccnc32)CC1 [Compound IV-5]	362.49 ± 50.00	1.19 ± 0.23	65.70±20.11	1.19 ± 0.27	31.60±20.10	solubility Methanol [2]: 22 mg/mL (≈ 47.5 mM); Content ([3]; Month 1, 43800 min): 99.5%; Content ([3]; Month 2, 87600 min): 99.4%; Content ([3]; Month 3, 131400 min): 99.4%; Content ([3]; Month 6, 262800 min): 99.2%
